# Reference: ChEMBL document CHEMBL1201862, “PubChem BioAssay data set” (2004)
# Activity calls are given as the source filed them.
# How the values were obtained:
# [1] = molecular target: T1, High affinity choline transporter 1 (Homo sapiens, UniProt Q9GZV3); experiment: human choline transporter potentiators, potency – cell-based, 10-point CRC, membrane potential dye, dose response (AID 602376); format: functional
# T1 sequence (Q9GZV3 whole entry): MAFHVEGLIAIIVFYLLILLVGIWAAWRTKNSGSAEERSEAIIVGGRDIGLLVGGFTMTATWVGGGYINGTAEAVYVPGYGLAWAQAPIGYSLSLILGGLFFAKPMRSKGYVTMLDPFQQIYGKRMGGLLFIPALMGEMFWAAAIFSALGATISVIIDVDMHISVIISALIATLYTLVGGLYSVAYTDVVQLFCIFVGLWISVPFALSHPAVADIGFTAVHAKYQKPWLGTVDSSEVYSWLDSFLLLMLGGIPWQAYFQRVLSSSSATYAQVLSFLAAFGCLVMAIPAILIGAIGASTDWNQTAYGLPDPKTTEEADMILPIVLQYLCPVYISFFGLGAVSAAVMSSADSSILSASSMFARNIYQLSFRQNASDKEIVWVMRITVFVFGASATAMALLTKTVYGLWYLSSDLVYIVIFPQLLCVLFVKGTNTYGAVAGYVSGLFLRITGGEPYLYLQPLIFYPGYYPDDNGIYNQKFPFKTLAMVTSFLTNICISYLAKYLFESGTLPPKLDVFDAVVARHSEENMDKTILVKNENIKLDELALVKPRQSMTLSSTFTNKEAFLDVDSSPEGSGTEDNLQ
# H4 [2] = experiment: inhibitors of control reporter signal in H4 cells – cell-based, plate reader, dry powder samples, counter-screen for prion reporter project, dose response (AID 540255); format: functional; settings: Homo sapiens
# [3] = HEK-293T viability loss, compound-treated – cell-based, uHTS hits, cytotoxicity control for B/T-cell NF-kB inhibitor project, dose response (AID 489019); format: functional;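 also: IC50 reflects cytotoxicity as loss of cell viability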
# [4] = molecular target: T2, Luciferin 4-monooxygenase (Photinus pyralis, UniProt P08659); experiment: inhibition of purified Photinus pyralis luciferase – biochemical, luminescence, dose response (AID 1891)
# [5] = viability loss in CEM21 cells – cell-based, CellTiter-Glo luminescence, cherry-picked, cytotoxicity control for viral fusion inhibitor project, dose response (AID 652042); format: functional;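 also: potency for signal decrease meaning cytotoxicity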
# [6] = blockers of HIV-1 ZM109 envelope-driven cell-cell fusion – HeLa effector, CEM target cells, luciferase, cherry-pick, dose response (AID 652058); format: functional, cell-based;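 also: luciferase signal from HIV-1 Env mediated cell-cell fusion of effector and target cells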
# [7] = blockers of HIV-1 envelope-mediated cell-cell fusion – cherry-pick, dose response (AID 652057); format: functional, cell-based
# BJ [8] = experiment: BJ-TERT fibroblast viability loss – cell-based, RAS-independent, luminescence, dose response (AID 1933); format: functional; settings: Homo sapiens
# BJ [9] = experiment: BJ-TERT-LT-ST fibroblast viability loss – cell-based, RAS-independent, luminescence, dose response (AID 1935); format: functional; settings: Homo sapiens;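 also: BJ fibroblasts immortalized with TERT plus LT and ST oncogenes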
# [10] = toxicity toward HepG2 liver cells – cell-based, plate reader, cherry-pick, antagonist series, cytotoxicity control, dose response (AID 743416); format: functional
# BJ [11] = experiment: cells; format: functional, cell-based; settings: Homo sapiens
# [12] = molecular target: T2, Luciferin 4-monooxygenase; experiment: inhibition of purified Photinus pyralis luciferase – biochemical, dry powder samples, plate reader, dose response (AID 588451)
# [13] = loss of viability in HepG2 cells – cell-based, CellTiter-Glo, cherry-picked, cytotoxicity control for Shn3 inhibitor project, dose response (AID 624134); format: functional
# [14] = HIV-1 AD8 envelope cell-cell fusion blockers – cherry-pick, dose response (AID 652062); format: functional, cell-based;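 also: luciferase signal from cell-cell fusion driven by HIV-1 clade B AD8 Env; potency is for inhibitors of fusion seen as a drop in luminescence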
# [15] = viability loss in HEK293 cells – cell-based, plate reader, cherry-picked samples, cytotoxicity control, dose response (AID 743446); format: functional
# [16] = reduction of Shn3 3'UTR-driven luciferase in osteoblasts – cell-based, Clone20 osteoblasts, firefly luciferase, cherry-picked, dose response (AID 624132); format: functional;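 also: firefly luciferase luminescence from reporter carrying the Shn3 3'UTR in osteoblasts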
# [17] = A549 cell cytotoxicity, dose response, cytotoxicity control, plate reader, cherry-pick, antagonist series (AID 743412); format: functional, cell-based
# [18] = off-target signal loss in HeLa-CEM21 co-culture – HeLa F-luc CTL cells, cherry-picked, counter-screen for HIV-1 Env fusion inhibitor project, dose response (AID 652040); format: functional, cell-based;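 also: potency for signal decrease marking cytotoxic or nonspecific inhibition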
# INS1 = experiment: INS-1E survival protection against cytokine death – cell-based, luminescence, retest, dose response (AID 449756); format: functional; settings: Rattus norvegicus;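 also: cell death triggered by IL-1 beta plus TNF-alpha plus IFN-gamma mixture; protective hits raise ATP signal compared with cytokine alone wells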
# [19] = blockers of bursicon-stimulated LGR2 cAMP reporter – cell-based, HEK293, CRE-luciferase reporter, cherry pick, set 2, dose response (AID 743343); format: functional;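 also: transfected cells were stimulated with diluted bursicon conditioned medium after compound addition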
# BJ [20] = experiment: growth inhibition of engineered Ras-driven BJ cells – cell-based, alamar blue fluorescence, cherrypicked samples, dose response (AID 2631); format: functional; settings: Homo sapiens;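 also: confirmatory dose-response assay in RAS-dependent BJ fibroblasts engineered with TERT, LT and ST, with cytotoxicity read by fluorescence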
# H4 [21] = experiment: Amyloid Precursor 5' UTR neuroblastoma cell reporter line Measured in Cell-Based System Using Plate Reader - 2078-04_Inhibitor_Dose_DryPowder_Activity. [Related pubchem assays (depositor defined):AID488894]; format: functional; settings: Homo sapiens
# H4 [22] = experiment: Inhibitors of Prion Protein 5' UTR mRNA Measured in Cell-Based System Using Plate Reader - 2078-01_Inhibitor_Dose_DryPowder_Activity. [Related pubchem assays (depositor defined):AID488894]; format: functional; settings: Homo sapiens
# [23] = blockade of melanocortin 4 receptor signaling – cell-based, plate reader, cherry pick, counter-screen for LGR2 antagonist project, dose response (AID 743444); format: functional;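 also: transfected HEK 293 cells stimulated with alpha-MSH peptide; potency of inhibitors of the alpha-MSH evoked signal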
# Jurkat = experiment: blockers of NF-kB activation in T cells – Jurkat, luciferase reporter, luminescence, B- and T-cell, dose response (AID 489004); format: functional, cell-based; settings: Homo sapiens;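 also: NF-kB luciferase reporter Jurkat cells stimulated with PMA plus ionomycin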
# [24] = Luminescence Cell-Based Dose Confirmation HTS to Identify Inhibitors of Platelet Dense Granule Release. [Related pubchem assays: 1663 (Primary HTS), 1678 (Summary of Project)]; format: functional
# [25] = DRD fibroblast viability loss – cell-based, non-viral oncogenic, luminescence, dose response (AID 1934); format: functional; settings: Homo sapiens
# [26] = molecular target: Heat shock protein HSP 90-alpha (Homo sapiens, UniProt P07900); format: functional, organism-based
# [27] = molecular target: Glycogen synthase kinase-3 alpha (Homo sapiens, UniProt P49840); experiment: GSK3A enzyme blockers, homolog specificity check – biochemical, microfluidics, dry powder samples, set 2, selectivity assay for GSK3beta inhibitor project, dose response (AID 623978); format: functional
# [28] = molecular target: Glycogen synthase kinase-3 beta (Homo sapiens, UniProt P49841); experiment: inhibition of human GSK3B activity – biochemical, microfluidics, dry powder samples, set 2, dose response (AID 623989); format: functional
# [29] = Luminescence Cell-Based Dose Response HTS to Identify Inhibitors of 5'UTR Stem-Loop Driven Prion Protein mRNA Translation in H4 Neuroglioblastoma Cells. [Related pubchem assays: 1827 (Project Summary), 1813 (Primary HTS)]; format: functional
# [30] = molecular target: Cyclin-dependent kinase 5/CDK5 activator 1 (Homo sapiens, UniProt Q00535); experiment: inhibitors of human CDK5 activity – biochemical, microfluidic mobility shift, dry powder, set 2, selectivity assay for GSK3beta inhibitor project, dose response (AID 623979); format: functional
# [31] = luciferase reporter signal suppression in cells – H4 neuroglioma cells, luminescence, dose response (AID 1990); format: functional, cell-based
# [32] = alpha-synuclein stem-loop luciferase translation blockers – H4 neuroglioma cells, luminescence, confirmation (AID 1988); format: functional, cell-based
# [33] = NIH-3T3 fibroblast cytotoxicity, dose response, cytotoxicity control, cell-based, fluorescence, Alamar Blue, secondary assay (AID 2327); format: functional;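 also: NIH-3T3 mouse fibroblasts cultured with fluconazole at 8 µg/mL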
# [34] = molecular target: Serine/threonine-protein phosphatase (Candida dubliniensis (strain CD36 / CBS 7987 / NCPF 3949 / NRRLY-17841) (Yeast), UniProt B9W6M3); experiment: blockers of CaCl2-induced CDRE-lacZ signaling – S. cerevisiae, luminescence, secondary, dose response (AID 2388); format: functional, cell-based;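 also: yeast reporter cells carrying a calcineurin-responsive lacZ construct stimulated with calcium chloride; luminescent beta-galactosidase reporter signal in whole cells rather than isolated phosphatase activity; potency for inhibition where a drop in reporter signal means calcineurin blockade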
# [35] = fluconazole-exposed Candida albicans growth modulators – fluorescence, retest, confirmation (AID 2467); format: functional, cell-based
# [36] = molecular target: ATP-dependent molecular chaperone HSP82 (Candida albicans (strain WO-1) (Yeast), UniProt C4YTQ8); experiment: steroid-induced GRE reporter decrease in yeast – S. cerevisiae, luminescence, Hsp90 inhibitor project, dose response (AID 2400); format: functional, cell-based;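 also: beta-galactosidase luminescence from glucocorticoid response element reporter as proxy for Hsp90 function; inhibitor potency where signal loss means Hsp90 inhibition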
# [37] = molecular target: DNA dC->dU-editing enzyme APOBEC-3G (Homo sapiens, UniProt Q9HC16); experiment: SAR analysis of small molecule inhibitors of APOBEC3G DNA Deaminase via a fluorescence-based single-stranded DNA deaminase assay - Set 2.; format: functional; settings: read-out: IC50_Mean
# [38] = molecular target: DNA dC->dU-editing enzyme APOBEC-3A (Homo sapiens, UniProt P31941); experiment: SAR analysis of small molecule inhibitors of APOBEC3A DNA Deaminase via a fluorescence-based single-stranded DNA deaminase assay - Set 2.; format: functional; settings: read-out: IC50_Mean
# Sequence of DNA dC->dU-editing enzyme APOBEC-3A (P31941 whole entry): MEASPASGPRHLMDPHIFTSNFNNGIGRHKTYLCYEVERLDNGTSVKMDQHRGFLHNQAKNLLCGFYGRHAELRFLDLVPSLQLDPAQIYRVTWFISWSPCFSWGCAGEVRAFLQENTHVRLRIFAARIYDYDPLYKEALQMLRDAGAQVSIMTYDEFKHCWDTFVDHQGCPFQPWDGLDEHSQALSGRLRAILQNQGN
# T2 sequence (P08659 whole entry, the tested form may be a part): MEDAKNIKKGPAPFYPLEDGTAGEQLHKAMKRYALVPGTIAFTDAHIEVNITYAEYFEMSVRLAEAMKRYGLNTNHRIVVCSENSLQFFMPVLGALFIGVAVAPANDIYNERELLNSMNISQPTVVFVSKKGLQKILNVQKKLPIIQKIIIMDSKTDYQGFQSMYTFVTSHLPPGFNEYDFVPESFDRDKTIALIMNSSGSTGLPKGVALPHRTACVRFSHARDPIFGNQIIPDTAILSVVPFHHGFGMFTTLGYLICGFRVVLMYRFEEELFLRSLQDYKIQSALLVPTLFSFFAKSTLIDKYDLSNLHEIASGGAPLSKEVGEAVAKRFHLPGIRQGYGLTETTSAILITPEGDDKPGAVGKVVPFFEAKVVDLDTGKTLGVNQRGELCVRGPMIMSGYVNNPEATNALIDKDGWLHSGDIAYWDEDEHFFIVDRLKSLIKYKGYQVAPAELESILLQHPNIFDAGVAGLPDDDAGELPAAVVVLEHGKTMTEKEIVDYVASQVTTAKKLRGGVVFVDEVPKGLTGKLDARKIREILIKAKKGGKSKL
# Sequence of Serine/threonine-protein phosphatase (B9W6M3 whole entry): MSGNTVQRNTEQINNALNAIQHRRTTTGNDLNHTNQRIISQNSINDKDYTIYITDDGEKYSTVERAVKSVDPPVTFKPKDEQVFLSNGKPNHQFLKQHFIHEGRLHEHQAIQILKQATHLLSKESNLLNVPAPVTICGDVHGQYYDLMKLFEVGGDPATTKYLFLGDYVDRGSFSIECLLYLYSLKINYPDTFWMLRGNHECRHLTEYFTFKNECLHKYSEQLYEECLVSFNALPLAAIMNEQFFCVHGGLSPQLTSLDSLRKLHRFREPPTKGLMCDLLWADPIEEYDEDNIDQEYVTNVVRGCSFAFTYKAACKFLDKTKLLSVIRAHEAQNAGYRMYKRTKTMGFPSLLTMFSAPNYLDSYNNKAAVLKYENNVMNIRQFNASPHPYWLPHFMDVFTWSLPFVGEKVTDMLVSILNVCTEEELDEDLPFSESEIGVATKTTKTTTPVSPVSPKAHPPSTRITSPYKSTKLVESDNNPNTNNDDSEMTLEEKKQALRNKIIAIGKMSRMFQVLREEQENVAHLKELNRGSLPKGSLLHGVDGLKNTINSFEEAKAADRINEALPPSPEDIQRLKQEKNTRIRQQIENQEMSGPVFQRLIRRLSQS
# Sequence of ATP-dependent molecular chaperone HSP82 (C4YTQ8 whole entry): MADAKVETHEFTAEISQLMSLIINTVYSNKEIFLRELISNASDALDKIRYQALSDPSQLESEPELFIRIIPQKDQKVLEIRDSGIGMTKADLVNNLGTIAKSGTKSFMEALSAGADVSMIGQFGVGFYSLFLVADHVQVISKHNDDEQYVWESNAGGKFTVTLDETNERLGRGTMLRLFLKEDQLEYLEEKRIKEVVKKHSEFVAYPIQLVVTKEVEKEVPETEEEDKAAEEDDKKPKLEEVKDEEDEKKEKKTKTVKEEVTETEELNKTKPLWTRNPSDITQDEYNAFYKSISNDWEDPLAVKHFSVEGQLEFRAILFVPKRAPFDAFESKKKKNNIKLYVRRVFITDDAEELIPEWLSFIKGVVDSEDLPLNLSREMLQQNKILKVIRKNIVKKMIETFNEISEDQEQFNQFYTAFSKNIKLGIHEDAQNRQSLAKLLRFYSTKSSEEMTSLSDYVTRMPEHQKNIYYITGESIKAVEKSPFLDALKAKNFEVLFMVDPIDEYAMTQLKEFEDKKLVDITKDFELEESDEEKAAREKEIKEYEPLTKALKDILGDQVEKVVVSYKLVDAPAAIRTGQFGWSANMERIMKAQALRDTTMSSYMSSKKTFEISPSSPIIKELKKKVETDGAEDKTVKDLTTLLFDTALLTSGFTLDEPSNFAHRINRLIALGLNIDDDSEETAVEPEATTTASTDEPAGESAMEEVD
# Sequence of Glycogen synthase kinase-3 beta (P49841 whole entry): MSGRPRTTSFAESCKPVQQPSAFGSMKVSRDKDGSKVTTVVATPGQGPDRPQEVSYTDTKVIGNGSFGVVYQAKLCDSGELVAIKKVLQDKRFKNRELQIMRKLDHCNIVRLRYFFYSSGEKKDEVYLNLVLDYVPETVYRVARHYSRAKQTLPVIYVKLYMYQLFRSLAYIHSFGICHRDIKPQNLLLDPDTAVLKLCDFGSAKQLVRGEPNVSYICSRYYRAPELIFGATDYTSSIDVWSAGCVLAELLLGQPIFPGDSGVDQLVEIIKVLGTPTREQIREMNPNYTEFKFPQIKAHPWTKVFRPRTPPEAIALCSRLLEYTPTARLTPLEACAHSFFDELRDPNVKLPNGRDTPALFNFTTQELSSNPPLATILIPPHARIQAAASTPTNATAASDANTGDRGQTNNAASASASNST
# Sequence of Cyclin-dependent kinase 5/CDK5 activator 1 (Q00535 whole entry): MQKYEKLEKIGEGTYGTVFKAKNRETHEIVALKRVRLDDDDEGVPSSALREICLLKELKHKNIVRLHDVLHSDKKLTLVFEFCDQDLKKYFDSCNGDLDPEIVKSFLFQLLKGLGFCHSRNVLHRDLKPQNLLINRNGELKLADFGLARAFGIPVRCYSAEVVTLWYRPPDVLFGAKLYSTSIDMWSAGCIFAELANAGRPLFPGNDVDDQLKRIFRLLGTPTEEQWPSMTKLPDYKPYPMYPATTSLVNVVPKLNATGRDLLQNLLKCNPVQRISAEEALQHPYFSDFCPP
# Sequence of Cyclin-dependent kinase 5/CDK5 activator 1 (Q15078 whole entry, further chain): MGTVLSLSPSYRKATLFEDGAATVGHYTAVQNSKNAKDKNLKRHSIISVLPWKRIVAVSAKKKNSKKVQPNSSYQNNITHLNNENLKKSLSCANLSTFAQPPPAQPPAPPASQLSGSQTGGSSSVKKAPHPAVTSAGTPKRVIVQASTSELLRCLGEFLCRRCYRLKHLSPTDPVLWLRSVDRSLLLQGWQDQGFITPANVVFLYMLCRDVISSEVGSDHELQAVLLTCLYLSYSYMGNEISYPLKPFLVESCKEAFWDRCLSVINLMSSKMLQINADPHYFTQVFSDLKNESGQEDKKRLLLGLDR
# Sequence of Glycogen synthase kinase-3 alpha (P49840 whole entry): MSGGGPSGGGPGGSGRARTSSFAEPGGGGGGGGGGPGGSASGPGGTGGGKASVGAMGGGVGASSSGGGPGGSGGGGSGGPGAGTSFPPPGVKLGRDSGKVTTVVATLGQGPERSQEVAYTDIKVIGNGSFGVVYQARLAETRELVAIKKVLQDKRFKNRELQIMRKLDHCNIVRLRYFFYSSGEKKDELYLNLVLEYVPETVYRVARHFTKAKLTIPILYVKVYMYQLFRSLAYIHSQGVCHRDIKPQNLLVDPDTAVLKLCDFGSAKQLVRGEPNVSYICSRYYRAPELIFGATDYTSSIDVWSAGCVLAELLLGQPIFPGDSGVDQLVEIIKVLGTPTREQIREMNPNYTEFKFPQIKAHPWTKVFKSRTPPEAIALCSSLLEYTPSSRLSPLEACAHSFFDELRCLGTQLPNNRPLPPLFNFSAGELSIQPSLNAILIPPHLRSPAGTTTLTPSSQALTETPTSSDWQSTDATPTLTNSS
# Sequence of DNA dC->dU-editing enzyme APOBEC-3G (Q9HC16 whole entry): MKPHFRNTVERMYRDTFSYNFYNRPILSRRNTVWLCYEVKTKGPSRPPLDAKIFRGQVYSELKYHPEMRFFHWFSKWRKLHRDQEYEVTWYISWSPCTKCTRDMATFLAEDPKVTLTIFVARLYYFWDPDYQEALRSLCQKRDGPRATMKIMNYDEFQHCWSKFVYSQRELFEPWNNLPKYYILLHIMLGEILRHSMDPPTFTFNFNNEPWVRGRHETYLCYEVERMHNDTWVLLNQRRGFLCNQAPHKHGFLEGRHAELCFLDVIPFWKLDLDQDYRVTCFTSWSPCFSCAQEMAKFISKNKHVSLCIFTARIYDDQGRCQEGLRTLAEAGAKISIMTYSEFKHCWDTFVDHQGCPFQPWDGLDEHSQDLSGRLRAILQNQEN
smiles,measurement,setting,value
O=C(c1cccc(C(F)(F)F)c1)C1CCCN(Cc2cccn2-c2ncccn2)C1 (centres undefined),EC50,[1],6690 nM (active)
COc1cc(SC)ccc1C(=O)Nc1nc2ccccc2[nH]1,AC50,H4 [2],885 nM (active)
same,IC50,[3],> 80000 nM (inactive)
same,EC50,[4],152 nM (active)
same,AC50,[5],1280 nM (active)
same,AC50,[6],1980 nM (active)
same,AC50,[7],260 nM (active)
same,EC50,BJ [8],1020 nM (active)
same,EC50,BJ [9],2260 nM (active)
same,AC50,[10],14500 nM (active)
same,EC50,BJ [11],1260 nM (active)
same,AC50,[12],9.03 nM (active)
same,AC50,[13],28500 nM (active)
same,AC50,[14],319 nM (active)
same,AC50,[15],3350 nM (active)
same,AC50,[16],< 260 nM (active)
same,AC50,[17],2520 nM (active)
same,AC50,[18],513 nM (active)
same,AC50,INS1,1120 nM (active)
same,AC50,[19],< 68 nM (active)
same,EC50,BJ [20],> 133000 nM (inactive)
same,AC50,H4 [21],< 0.015 nM (active)
same,AC50,H4 [22],28 nM (active)
same,AC50,[23],< 68 nM (active)
same,IC50,Jurkat,< 160 nM (active)
same,EC50,[24],240 nM (active)
same,EC50,[25],930 nM (active)
same,AC50,[26],1420 nM (active)
CCOc1cccc(-c2c(C(=O)N/N=C/c3sccc3C)nnn2-c2nonc2N)c1,AC50,[27],474 nM (active)
same,AC50,[28],197 nM (active)
same,EC50,[29],15600 nM (active)
same,AC50,[30],4070 nM (active)
same,EC50,[31],> 120000 nM (not active)
same,EC50,[32],82200 nM (active)
C/C(=N\NC(=O)c1cc(C2CC2)nc2ccccc12)c1ccc(O)cc1O,EC50,[33],12900 nM (inconclusive)
same,EC50,[34],> 180000 nM (inactive)
same,EC50,[35],2460 nM (active)
same,EC50,[36],> 160000 nM (inactive)
same,EC50,[29],11400 nM (active)
same,AC50,INS1,1010 nM (active)
same,EC50,[31],11700 nM (active)
same,EC50,[32],5570 nM (inconclusive)
Cc1ccc(-c2csc3nnc(SCCOc4ccccc4)n23)cc1,IC50,[37],> 99000 nM (inactive)
same,IC50,[38],> 99000 nM (inactive)
